Laboratory results: patent CN111743889A, “赤麻木脂素的新用途” (Shanghai Institute of Materia Medica of CAS, priority 2019, dated 2020)

Legend:
Format in all cases: cell-based
IκBα = test: Western blot, IκBα phosphorylation; conditions: TNF-α induced, 10 min; compound 1, 5, 10, 20 μM, 1 h
STAT1 = test: Western blot, STAT1 phosphorylation; conditions: IFN-γ induced, 10 min; compound 1, 5, 10, 20 μM, 1 h
[1] = test system: NF-κB signalling pathway [NF-κB信号通路]; test: NF-κB luciferase reporter gene assay (TNF-α induced); conditions: HEK293 cells with reporter; TNF-α 10 ng/ml induced; compound 1-40 μM, added 1 h before stimulus; read 5 h after
IGF1R = biological target: T1, IGF1R (Homo sapiens, UniProt P08069); test: Western blot, IGF1R phosphorylation; conditions: same concentrations (1, 5, 10, 20 μM), 1 h
T1 construct: 将细胞以每孔15万的量接种在24孔板内; endogenous in cells

JAK1 = biological target: T2, JAK1 (Homo sapiens, UniProt P23458); test: Western blot, JAK1 phosphorylation; conditions: IL-6, IFN-γ and IFN-α induced, 10 min; compound 1, 5, 10, 20 μM, 1 h
T2 construct: 将细胞以每孔15万的量接种在24孔板内; endogenous in cells; HepG2 and HEK293 are the only lines named

PDGFRα = biological target: T3, PDGFRα (Homo sapiens, UniProt P16234); test: Western blot, PDGFRα phosphorylation; conditions: same concentrations (1, 5, 10, 20 μM), 1 h
T3 construct: 将细胞以每孔15万的量接种在24孔板内; endogenous in cells

TYK2 = biological target: T4, TYK2 (Homo sapiens, UniProt P29597); test: Western blot, TYK2 phosphorylation; conditions: IL-6, IFN-γ and IFN-α induced, 10 min; compound 1, 5, 10, 20 μM, 1 h
T4 construct: 将细胞以每孔15万的量接种在24孔板内; endogenous in cells; HepG2 and HEK293 are the only lines named

PDGFRβ = biological target: T5, PDGFRβ (Homo sapiens, UniProt P09619); test: Western blot, PDGFRβ phosphorylation; conditions: same concentrations (1, 5, 10, 20 μM), 1 h
T5 construct: 将细胞以每孔15万的量接种在24孔板内; endogenous in cells

EGFR = biological target: T6, EGFR (Homo sapiens, UniProt P00533); test: Western blot, EGFR phosphorylation; conditions: same concentrations (1, 5, 10, 20 μM), 1 h
T6 construct: 将细胞以每孔15万的量接种在24孔板内; endogenous in cells

STAT3 = test: Western blot, STAT3 phosphorylation; conditions: IL-6 induced, 10 min; compound 1, 5, 10, 20 μM, 1 h
JAK2 = biological target: T7, JAK2 (Homo sapiens, UniProt O60674); test: Western blot, JAK2 phosphorylation; conditions: IL-6, IFN-γ and IFN-α induced, 10 min; compound 1, 5, 10, 20 μM, 1 h
T7 construct: 将细胞以每孔15万的量接种在24孔板内; endogenous in cells; HepG2 and HEK293 are the only lines named

IKK-α/β = test: Western blot, IKK-α/β phosphorylation; conditions: TNF-α induced, 10 min; compound 1, 5, 10, 20 μM, 1 h
[2] = test system: STAT1 transcription factor [STAT1转录因子]; test: STAT1 luciferase reporter gene assay (IFN-γ induced); conditions: HepG2 cells stably transfected with reporter; IFN-γ 10 ng/ml induced; compound 1-40 μM, added 1 h before stimulus; read 5 h after
[3] = test system: STAT3 transcription factor [STAT3转录因子]; test: STAT3 luciferase reporter gene assay (IL-6 induced); conditions: HepG2 cells stably transfected with reporter; IL-6 10 ng/ml induced; compound 1-40 μM, added 1 h before stimulus; read 5 h after

T2 sequence (P23458 whole entry): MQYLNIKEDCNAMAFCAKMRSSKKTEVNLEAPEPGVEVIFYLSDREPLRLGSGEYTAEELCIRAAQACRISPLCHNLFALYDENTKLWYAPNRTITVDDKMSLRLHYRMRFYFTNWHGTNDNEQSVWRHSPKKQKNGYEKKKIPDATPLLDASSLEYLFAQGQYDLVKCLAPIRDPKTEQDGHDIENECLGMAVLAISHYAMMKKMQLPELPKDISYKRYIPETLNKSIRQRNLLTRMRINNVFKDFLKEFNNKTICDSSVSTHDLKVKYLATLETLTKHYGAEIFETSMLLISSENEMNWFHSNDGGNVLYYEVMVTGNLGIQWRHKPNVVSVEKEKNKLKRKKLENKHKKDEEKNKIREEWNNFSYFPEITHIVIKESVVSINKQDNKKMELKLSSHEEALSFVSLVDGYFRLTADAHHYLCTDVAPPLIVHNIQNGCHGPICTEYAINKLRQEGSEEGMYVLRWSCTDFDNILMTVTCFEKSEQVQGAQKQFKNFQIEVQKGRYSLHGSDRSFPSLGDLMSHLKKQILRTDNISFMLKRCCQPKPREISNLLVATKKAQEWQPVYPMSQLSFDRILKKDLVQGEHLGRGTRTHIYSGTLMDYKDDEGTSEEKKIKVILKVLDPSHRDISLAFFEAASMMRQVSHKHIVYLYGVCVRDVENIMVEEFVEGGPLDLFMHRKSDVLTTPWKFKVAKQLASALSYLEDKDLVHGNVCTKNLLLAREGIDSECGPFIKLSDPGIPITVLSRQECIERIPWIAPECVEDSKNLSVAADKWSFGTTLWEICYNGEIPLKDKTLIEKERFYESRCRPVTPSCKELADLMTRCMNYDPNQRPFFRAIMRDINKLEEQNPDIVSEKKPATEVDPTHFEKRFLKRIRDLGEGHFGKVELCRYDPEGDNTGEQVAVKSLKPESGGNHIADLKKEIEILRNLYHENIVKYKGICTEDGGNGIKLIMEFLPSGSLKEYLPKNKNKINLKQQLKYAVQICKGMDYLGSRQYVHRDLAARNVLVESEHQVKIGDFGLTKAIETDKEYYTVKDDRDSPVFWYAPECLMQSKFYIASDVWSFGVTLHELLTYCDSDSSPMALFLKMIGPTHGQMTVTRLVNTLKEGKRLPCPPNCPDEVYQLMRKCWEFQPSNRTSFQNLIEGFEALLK
T1 sequence (P08069 31-1367): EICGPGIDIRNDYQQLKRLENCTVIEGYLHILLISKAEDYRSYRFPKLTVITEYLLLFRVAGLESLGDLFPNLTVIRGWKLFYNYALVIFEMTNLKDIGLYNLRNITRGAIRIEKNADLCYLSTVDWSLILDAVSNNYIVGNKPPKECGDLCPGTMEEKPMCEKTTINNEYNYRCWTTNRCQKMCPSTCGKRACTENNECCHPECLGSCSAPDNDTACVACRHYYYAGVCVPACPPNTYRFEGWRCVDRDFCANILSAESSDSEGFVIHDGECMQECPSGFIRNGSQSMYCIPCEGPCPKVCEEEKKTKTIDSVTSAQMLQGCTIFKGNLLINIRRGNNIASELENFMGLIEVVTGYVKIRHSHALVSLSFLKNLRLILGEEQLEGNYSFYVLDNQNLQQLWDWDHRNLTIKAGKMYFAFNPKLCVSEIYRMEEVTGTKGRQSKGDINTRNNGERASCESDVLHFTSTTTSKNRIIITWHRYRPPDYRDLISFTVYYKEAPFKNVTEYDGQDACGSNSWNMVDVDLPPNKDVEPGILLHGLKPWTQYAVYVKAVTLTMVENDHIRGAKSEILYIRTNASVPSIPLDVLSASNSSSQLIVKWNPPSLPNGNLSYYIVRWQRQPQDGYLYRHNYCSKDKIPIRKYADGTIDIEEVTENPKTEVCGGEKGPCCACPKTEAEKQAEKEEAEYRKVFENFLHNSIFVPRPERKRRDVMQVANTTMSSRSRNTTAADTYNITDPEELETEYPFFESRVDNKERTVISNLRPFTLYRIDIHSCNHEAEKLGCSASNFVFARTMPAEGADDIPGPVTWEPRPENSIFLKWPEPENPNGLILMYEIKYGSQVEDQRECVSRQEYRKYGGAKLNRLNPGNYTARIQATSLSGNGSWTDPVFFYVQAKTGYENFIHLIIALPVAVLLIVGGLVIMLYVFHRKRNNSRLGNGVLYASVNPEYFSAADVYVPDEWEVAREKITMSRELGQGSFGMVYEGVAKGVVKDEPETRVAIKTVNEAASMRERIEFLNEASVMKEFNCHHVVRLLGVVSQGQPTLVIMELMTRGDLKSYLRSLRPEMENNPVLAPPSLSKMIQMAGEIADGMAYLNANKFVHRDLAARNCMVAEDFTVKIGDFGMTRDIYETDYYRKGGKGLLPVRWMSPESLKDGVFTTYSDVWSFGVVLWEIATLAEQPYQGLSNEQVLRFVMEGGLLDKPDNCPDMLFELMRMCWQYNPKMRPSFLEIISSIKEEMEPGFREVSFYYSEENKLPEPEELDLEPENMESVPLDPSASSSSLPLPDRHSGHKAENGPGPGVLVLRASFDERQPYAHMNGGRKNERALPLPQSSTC
T5 sequence (P09619 33-1106): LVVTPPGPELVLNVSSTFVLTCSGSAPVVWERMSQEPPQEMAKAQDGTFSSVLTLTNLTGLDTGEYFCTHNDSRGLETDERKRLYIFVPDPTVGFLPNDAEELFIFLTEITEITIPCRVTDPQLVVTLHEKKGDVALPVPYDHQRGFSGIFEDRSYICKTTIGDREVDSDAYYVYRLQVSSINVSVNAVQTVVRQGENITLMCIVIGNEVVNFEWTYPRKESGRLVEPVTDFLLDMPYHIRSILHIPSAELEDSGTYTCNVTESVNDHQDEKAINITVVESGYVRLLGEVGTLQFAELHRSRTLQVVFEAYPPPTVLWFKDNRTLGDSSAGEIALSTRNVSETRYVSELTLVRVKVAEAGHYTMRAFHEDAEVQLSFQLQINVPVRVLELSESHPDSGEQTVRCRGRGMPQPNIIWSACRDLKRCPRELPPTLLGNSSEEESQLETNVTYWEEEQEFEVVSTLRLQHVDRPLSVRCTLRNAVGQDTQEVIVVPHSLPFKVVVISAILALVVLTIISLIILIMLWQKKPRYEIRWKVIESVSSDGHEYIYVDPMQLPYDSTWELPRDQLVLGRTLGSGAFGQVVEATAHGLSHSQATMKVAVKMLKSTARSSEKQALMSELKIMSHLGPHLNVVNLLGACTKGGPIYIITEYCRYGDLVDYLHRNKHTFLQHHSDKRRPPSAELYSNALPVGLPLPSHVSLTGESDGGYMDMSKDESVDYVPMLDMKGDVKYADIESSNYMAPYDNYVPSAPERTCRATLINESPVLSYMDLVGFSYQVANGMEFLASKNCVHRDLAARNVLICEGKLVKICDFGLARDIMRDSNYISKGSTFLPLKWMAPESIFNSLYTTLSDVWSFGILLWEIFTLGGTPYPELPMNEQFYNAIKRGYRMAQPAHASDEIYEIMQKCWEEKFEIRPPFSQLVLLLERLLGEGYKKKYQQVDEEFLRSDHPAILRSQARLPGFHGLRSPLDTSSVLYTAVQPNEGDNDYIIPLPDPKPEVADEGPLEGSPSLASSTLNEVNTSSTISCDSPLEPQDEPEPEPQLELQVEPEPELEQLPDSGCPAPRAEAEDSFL
T3 sequence (P16234 24-1089): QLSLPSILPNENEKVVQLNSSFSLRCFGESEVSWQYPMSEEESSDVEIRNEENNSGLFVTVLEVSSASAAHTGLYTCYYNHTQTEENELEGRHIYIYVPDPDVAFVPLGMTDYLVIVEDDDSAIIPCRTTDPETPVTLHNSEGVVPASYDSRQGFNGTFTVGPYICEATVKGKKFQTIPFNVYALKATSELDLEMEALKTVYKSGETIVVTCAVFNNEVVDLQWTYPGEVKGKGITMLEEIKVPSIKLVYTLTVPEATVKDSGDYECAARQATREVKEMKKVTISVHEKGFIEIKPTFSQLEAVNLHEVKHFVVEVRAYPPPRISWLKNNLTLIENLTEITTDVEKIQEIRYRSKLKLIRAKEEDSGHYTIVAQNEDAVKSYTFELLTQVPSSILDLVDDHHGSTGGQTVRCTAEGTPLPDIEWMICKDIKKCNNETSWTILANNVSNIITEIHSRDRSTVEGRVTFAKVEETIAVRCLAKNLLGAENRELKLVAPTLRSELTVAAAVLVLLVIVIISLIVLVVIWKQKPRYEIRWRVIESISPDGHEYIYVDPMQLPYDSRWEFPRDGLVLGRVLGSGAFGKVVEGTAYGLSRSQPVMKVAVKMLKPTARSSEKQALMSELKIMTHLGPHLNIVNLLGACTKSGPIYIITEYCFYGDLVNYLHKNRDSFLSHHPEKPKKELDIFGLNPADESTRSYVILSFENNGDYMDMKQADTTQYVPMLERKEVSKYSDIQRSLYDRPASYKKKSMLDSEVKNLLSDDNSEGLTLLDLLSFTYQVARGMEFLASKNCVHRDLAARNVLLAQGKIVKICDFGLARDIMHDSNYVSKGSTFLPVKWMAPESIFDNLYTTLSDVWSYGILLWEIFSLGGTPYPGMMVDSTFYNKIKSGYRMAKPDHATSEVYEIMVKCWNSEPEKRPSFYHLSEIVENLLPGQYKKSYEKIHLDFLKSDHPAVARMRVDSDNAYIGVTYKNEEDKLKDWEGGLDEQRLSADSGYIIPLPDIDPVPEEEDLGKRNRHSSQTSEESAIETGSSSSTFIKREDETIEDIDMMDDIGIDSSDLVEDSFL

inhibition of NF-κB signalling pathway (NF-κB-dependent luciferase activity) [1]: 浓度依赖性的抑制 | effect on phosphorylation of other tyrosine kinases (IGF1R) (IGF1R): 没有抑制作用 | inhibition of JAK phosphorylation (p-JAK1) (JAK1): 抑制 | effect on phosphorylation of other tyrosine kinases (PDGFRα) (PDGFRα): 没有抑制作用 | inhibition of JAK phosphorylation (p-TYK2) (TYK2): 抑制 | effect on phosphorylation of other tyrosine kinases (PDGFRβ) (PDGFRβ): 没有抑制作用 | effect on phosphorylation of other tyrosine kinases (EGFR) (EGFR): 没有抑制作用 | inhibition of JAK phosphorylation (p-JAK2) (JAK2): 抑制 | inhibition of transcriptional activity of STAT1 transcription factor (luciferase) [2]: 剂量依赖性的抑制 | inhibition of transcriptional activity of STAT3 transcription factor (luciferase) [3]: 剂量依赖性的抑制
Compound: COc1cc(C=CC(=O)OCCCc2cc(OC)c3c(c2)C(COC(=O)C=Cc2ccc(O)c(OC)c2)C(c2ccc(O)c(OC)c2)O3)ccc1O (centres unmarked) [赤麻木脂素, 3-(4-Hydroxy-3-methoxyphenyl)propenoic acid 3-[2,3-dihydro-2-(4-hydroxy-3-methoxyphenyl)-3-[[[3-(4-hydroxy-3-methoxyphenyl)-1-oxo-2-propenyl]oxy]methyl]-7-methoxybenzofuran-5-yl]propyl ester]
inhibition of IκBα phosphorylation (IκBα): 抑制 | inhibition of STAT1 phosphorylation (STAT1): 抑制 | inhibition of STAT3 phosphorylation (STAT3): 抑制 | inhibition of IKK-α/β phosphorylation (IKK-α/β): 抑制
